PMC8734228 (Cancer discovery, 2021)
Like-named read-outs stand apart in the source and are kept apart here.

Tests used:
FLC PDX cells = experiment: Validation screen on cells dissociated from FLC PDX; format: cell-based, human; conditions: for Effect on FLC PDX cells in vitro (dose response, normalized percent survival): 10nM-10μM, 72 h, FLC1-6; for Efficacy ranking in the screen: ranked by average −log10EC50 for FLC1-5 minus −log10EC50 for PHH
[1] = tested on: cells dissociated directly from patient tumors (FLC.T6-T11); experiment: Direct from patient in vitro screening; format: cell-based, human; conditions: for Sensitivity of cells tested directly from patients: 10μM-10nM, 72h, Cell Titer Glo; for Drug sensitivity of FLC.T6 compared with derived PDX FLC6 (EC50): cells direct from patient tumor vs cells from its PDX
PI3K (p110α)/DNA-PK = conditions: read-out: IC50 PI3K (p110α)/DNA-PK; cited from earlier work
FLC1 PDX cells = experiment: Validation screen, 11-point dose response, 72 h, Cell Titer Glo; format: cell-based, human; conditions: read-out: EC50 FLC
FLC2 PDX cells = experiment: as above; format: cell-based, human; conditions: read-out: EC50 FLC
FLC3 PDX cells = experiment: as above; format: cell-based, human; conditions: read-out: EC50 FLC
FLC4 PDX cells = experiment: as above; format: cell-based, human; conditions: read-out: EC50 FLC
FLC5 PDX cells = experiment: as above; format: cell-based, human; conditions: Homo sapiens, 72 h, read-out: EC50 FLC
FLC5 cells = experiment: Anchor screen, synergy assay; format: cell-based, human; conditions: FLC5, ZIP, Bliss and HSA scores
PKA = conditions: read-out: Ki PKA; cited from earlier work
Akt1 = conditions: read-out: Ki against other kinases: Akt1; cited from earlier work
Akt3 = conditions: read-out: Ki against other kinases: Akt3; cited from earlier work
[2] = tested on: primary human hepatocytes (PHH); experiment: Validation counter-screen on primary human hepatocytes; conditions: Homo sapiens, Hepatocyte, 72 h, read-out: EC50 PHH
ErbB2 = conditions: read-out: IC50 ErbB2; cited from earlier work
EGFR = conditions: read-out: IC50 EGFR; cited from earlier work
mTOR = conditions: read-out: IC50 mTOR; cited from earlier work
FLC1 cells = experiment: Role of ROS: survival with or without N-acetyl cysteine 10mM; format: cell-based, human; conditions: NAC 10mM, 72 h
FLC1 PDX = experiment: In vivo drug testing in mice bearing PDX FLC1; conditions: 2 days, FLC1
FLC PDX = experiment: In vivo drug testing of HDAC inhibitors in mice bearing PDX
FLC5 PDX = experiment: In vivo drug testing in mice bearing PDX FLC5; conditions: panobinostat 2.5mg/kg combined with navitoclax 50 mg/kg
GSK-3β = conditions: read-out: Ki against other kinases: GSK-3β; cited from earlier work
ERK2 = conditions: read-out: Ki against other kinases: ERK2; cited from earlier work
PKCδ = conditions: read-out: Ki against other kinases: PKCδ; cited from earlier work
RSK2 = conditions: read-out: Ki against other kinases: RSK2; cited from earlier work
FLC1,3,5 cells = experiment: Synergy assay, combination matrix with panobinostat; format: cell-based, human

Compound: Cc1ccc([N+](=O)[O-])cc1S(=O)(=O)N(C)/N=C/c1cnc2ccc(Br)cn12 [PIK-75]
- Effect on FLC PDX cells in vitro (dose response, normalized percent survival) (FLC PDX cells): potent against FLC1,4 relative to PHH
- Sensitivity of cells tested directly from patients [1]: sensitive
- IC50 (PI3K (p110α)/DNA-PK): 5.8 nM

Compound: Cn1ncc(Cl)c1-c1cc(C(=O)N[C@H](CN)Cc2ccc(F)c(F)c2)oc1Cl [Uprosertib (GSK2141795), Uprosertib]
- EC50 (FLC1 PDX cells; Homo sapiens, 72 h): 49 nM
- EC50 (FLC2 PDX cells; Homo sapiens, 72 h): 5040 nM
- EC50 (FLC3 PDX cells; Homo sapiens, 72 h): 870 nM
- EC50 (FLC4 PDX cells; Homo sapiens, 72 h): 910 nM
- EC50 (FLC5 PDX cells): 1720 nM
- Efficacy ranking in the screen (FLC PDX cells): 28
- Synergy with A1331852 (FLC5 cells): All drugs, apart from ENMD-2076 and uprosertib, showed some synergy
- Synergy with navitoclax (FLC5 cells): now synergized
- Sensitivity of cells tested directly from patients [1]: some sensitivity
- Ki (PKA): 2 nM
- Ki (Akt1): 180 nM
- Ki (Akt3): 38 nM
- EC50 [2]: > 10000 nM

Compound: CCOc1cc2ncc(C#N)c(Nc3ccc(OCc4ccccn4)c(Cl)c3)c2cc1NC(=O)/C=C/CN(C)C [Neratinib]
- Effect on FLC PDX cells in vitro (dose response, normalized percent survival) (FLC PDX cells): affected FLC1,5 in the micromolar range
- Sensitivity of cells tested directly from patients [1]: no effect on three others
- Drug sensitivity of FLC.T6 compared with derived PDX FLC6 (EC50) [1]: correlated well
- IC50 (ErbB2): 59 nM
- IC50 (EGFR): 92 nM

Compound: CO[C@H]1C[C@@H]2CC[C@@H](C)[C@@](O)(O2)C(=O)C(=O)N2CCCC[C@H]2C(=O)O[C@H]([C@H](C)C[C@@H]2CC[C@@H](OCCO)[C@H](OC)C2)CC(=O)[C@H](C)/C=C(\C)[C@@H](O)[C@@H](OC)C(=O)[C@H](C)C[C@H](C)/C=C/C=C/C=C/1C [everolimus]
- Synergy with A1331852 (FLC5 cells): some synergy
- IC50 (mTOR): 1.6 to 2.4 nM

Compound: COCC(=O)NC/C=C/c1ccc2ncnc(Nc3ccc(Oc4ccc(C)nc4)c(C)c3)c2c1 [CP-724714]
- Effect on FLC PDX cells in vitro (dose response, normalized percent survival) (FLC PDX cells): no effect
- IC50 (ErbB2): 10 nM

Compound: Cc1[nH]c2ccccc2c1CCNCc1ccc(/C=C/C(=O)NO)cc1 [panobinostat]
- Efficacy ranking in the screen (FLC PDX cells): 103
- Effect of N-acetyl cysteine (NAC) on the toxicity of the drug (FLC1 cells): mildly attenuated
- Apoptosis (TUNEL), panobinostat alone compared to vehicle (FLC1 PDX; panobinostat 10mg/kg alone): no evidence of increased apoptosis
- Apoptotic cells (TUNEL) with combined treatment (FLC1 PDX; panobinostat 10mg/kg combined with A1331852 25mg/kg): many apoptotic cells
- Tumor growth at 7 days (FLC PDX; 10mg/kg IP): −7%
- Tumor growth at 14 days (FLC PDX; 10mg/kg IP): 4%
- Average weight loss (FLC PDX; 10mg/kg IP, 14 days): 11%
- Tumor volume:mouse weight (FLC PDX; 10mg/kg IP, 14 days): stable or decreased
- Apoptosis as assayed by TUNEL (FLC PDX; 10mg/kg, after 14 days): no increase in apoptosis
- Mitotic figures, Ki67 and pHH3 positive cells in tumors (FLC PDX; 10mg/kg, after 14 days): dramatic decrease
- Tumor response with combined treatment (FLC5 PDX): partial response
- Sensitivity of cells tested directly from patients [1]: sensitive
- Drug sensitivity of FLC.T6 compared with derived PDX FLC6 (EC50) [1]: correlated well

Compound: Cc1[nH]nc2ccc(-c3cncc(OC[C@@H](N)Cc4ccccc4)c3)cc12 [A-674563]
- EC50 (FLC1 PDX cells; FLC1, 72 h): 340 nM
- EC50 (FLC2 PDX cells; FLC2, 72 h): 700 nM
- EC50 (FLC3 PDX cells; FLC3, 72 h): 880 nM
- EC50 (FLC4 PDX cells; FLC4, 72 h): 160 nM
- Therapeutic window for FLC over PHH (FLC PDX cells; FLC PDX cells compared with PHH): no therapeutic window
- Ki (PKA): 16 nM
- Ki (GSK-3β): 110 nM
- Ki (ERK2): 260 nM
- Ki (PKCδ): 360 nM
- Ki (RSK2): 580 nM

Compound: CC1(C)CCC(CN2CCN(c3ccc(C(=O)NS(=O)(=O)c4ccc(NCC5CCOCC5)c([N+](=O)[O-])c4)c(Oc4cnc5[nH]ccc5c4)c3)CC2)=C(c2ccc(Cl)cc2)C1 [venetoclax]
- Effect on FLC PDX cells in vitro (dose response, normalized percent survival) (FLC PDX cells): minimal activity
- Efficacy ranking in the screen (FLC PDX cells): towards the bottom of the ranking
- Synergy with panobinostat (ZIP synergy score) (FLC1,3,5 cells): no synergy
